The text below walks through data of patent US9724352B2, “Pyrrolo[2,1-F[1,2,4]triazine compounds, preparation methods and applications thereof” (Shanghai Institute of Materia Medica, Chinese Academy of …, priority 2012, dated 2017).

Assay [1] concerns rhabdomyosarcoma cells S-RH30. Briefly: Proliferation of human cancer cell panel. The assay is classed as cell-based. As to conditions: read-out: inhibitory activity on proliferation. From the text: (§1) I-30 and I-33 were selected to test their activity on the proliferation of human cancer cells originated from different tissue types.
For assay [2], the system named is B-BT474. The assay can be described thus: Proliferation of human cancer cell panel. As to conditions: read-out: inhibitory activity on proliferation. The assay is classed as cell-based.
Text: as §1

The subject of assay [3] is LG-NCI-H23. The assay can be described thus: Proliferation of human cancer cell panel. The assay is classed as cell-based. To be noted: read-out: inhibitory activity on proliferation.
Text: as §1

Assay [4] has as its system hepatoma cells L-BEL-7402. The assay can be described thus: Proliferation of human cancer cell panel. The assay is classed as cell-based. To be noted: read-out: inhibitory activity on proliferation.
Text: as §1

Assay [5] has as its system LG-NCI-H460. The assay can be described thus: Proliferation of human cancer cell panel. The assay is classed as cell-based. To be noted: read-out: inhibitory activity on proliferation.
Text: as §1

Assay [6] has as its system B-MCF-7. The assay can be described thus: Proliferation of human cancer cell panel. The format is cell-based. To be noted: read-out: inhibitory activity on proliferation.
Text: as §1

For assay [7], the system named is gastric cancer cells G-MKN-45. Briefly: Proliferation of human cancer cell panel. The assay is classed as cell-based. As to conditions: read-out: inhibitory activity on proliferation.
Text: as §1

In assay [8] the test system is colorectal cancer cells C-LOVO. Briefly: Proliferation of human cancer cell panel. The format is cell-based. To be noted: read-out: inhibitory activity on proliferation.
Text: as §1

The test system of assay [9] is endometrial cancer cells E-RL95-2. Briefly: Proliferation of human cancer cell panel. The assay is classed as cell-based. As to conditions: read-out: inhibitory activity on proliferation.
Text: as §1

Assay [10] relates to P-PC-3. Briefly: Proliferation of human cancer cell panel. The format is cell-based. As to conditions: read-out: inhibitory activity on proliferation.
Text: as §1

Assay [11] relates to colon cancer cells C-HCT-116. Briefly: Proliferation of human cancer cell panel. The assay is classed as cell-based. As to conditions: read-out: inhibitory activity on proliferation.
Text: as §1

For assay [12], the system named is O-SKOV-3. The assay can be described thus: Proliferation of human cancer cell panel. The assay is classed as cell-based. To be noted: read-out: inhibitory activity on proliferation.
Text: as §1

The test system of assay [13] is human neuroglioma U87-MG xenograft. The assay can be described thus: Growth of U87-MG xenograft subcutaneously transplanted in nude mouse. The assay is classed as in vivo. As to conditions: 50 mg/kg p.o. once a day. As to the method:
Well-developed tumors in nude mice were cut into 1.5 mm3 fragments and transplanted s.c. into the right flank of nude mice under sterile conditions. The diameters of subcutaneously transplanted tumours in nude mice were measured with a vernier calipe. […] Control groups were given the same amount of blank solvent, and treatment groups received tested compounds (p.o.). Compounds were administrated once a day for three weeks. Throughout the experiment, the sizes of the tumours were measured twice per week and meanwile the body weights of mice were weighed. The tumour volume (TV) was calculated as follows: TV=½×a×b2, wherein a and b represent the length and width, respectively. The individual relative tumour volume (RTV) was calculated as follows: RTV=Vt/V0, where V0 is the volume at the beginning of the treatment and Vt is the volume measured every time. Evaluation index of antitumor activity was relative tumor proliferation rate T/C (%), the calculation formula of which was as follows: T/C (%)=(TRTV/CRTV)×100%, TRTV:RTV of treatment group; CRTV:RTV of negative control group.

The target in assay [14] is PI3Kα (Homo sapiens (Human), UniProt P42336). The assay can be described thus: Inhibition on PI3K kinase activity (Kinase-Glo Plus luminescent assay). The assay is classed as biochemical. As to conditions: 2 μM ATP, 1 hour at room temperature. The procedure:
The activity of purified kinase was detected with Kinase-Glo® Plus kinase luminescent assay by measuring the amount of the remaining […] in the solution after the kinase reaction was completed. […] After reaction was performed for 1 hour at room temperature, 10 μL of Kinase Glo-Plus mixture was added and incubated for 1 hour to quench the reaction.
(Kinase-Glo measures the ATP left after a reaction by luminescence.)

Assay [15] deals with human rhabdomyosarcoma Rh30 cells. The assay can be described thus: Proliferation of Rh30 cells (sulforhodamine B). The format is cell-based. As to conditions: Homo sapiens, Rh30, 72 h; read-out: IC50 against proliferation of Rh30 cells. As to the method:
Rh30 cells were seeded in a 96-well plate at 3000 cells/well. After the cells adhered, tested compounds at concentration of 10, 3, 1, 0.3, or 0.1 μM were added, and incubated for 72 h. The culture media were discarded and cells were fixed with trichloroacetic acid. After washed with distilled water for five times and dried, sulfonylrhodamine B was added. After washed with 1% glacial acetic acid for five times and dried, trihydroxymethylaminomethane buffer was added. OD value was measured by using a microplate reader at a wavelength of 560 nm.

Sequence of PI3Kα (P42336 whole entry): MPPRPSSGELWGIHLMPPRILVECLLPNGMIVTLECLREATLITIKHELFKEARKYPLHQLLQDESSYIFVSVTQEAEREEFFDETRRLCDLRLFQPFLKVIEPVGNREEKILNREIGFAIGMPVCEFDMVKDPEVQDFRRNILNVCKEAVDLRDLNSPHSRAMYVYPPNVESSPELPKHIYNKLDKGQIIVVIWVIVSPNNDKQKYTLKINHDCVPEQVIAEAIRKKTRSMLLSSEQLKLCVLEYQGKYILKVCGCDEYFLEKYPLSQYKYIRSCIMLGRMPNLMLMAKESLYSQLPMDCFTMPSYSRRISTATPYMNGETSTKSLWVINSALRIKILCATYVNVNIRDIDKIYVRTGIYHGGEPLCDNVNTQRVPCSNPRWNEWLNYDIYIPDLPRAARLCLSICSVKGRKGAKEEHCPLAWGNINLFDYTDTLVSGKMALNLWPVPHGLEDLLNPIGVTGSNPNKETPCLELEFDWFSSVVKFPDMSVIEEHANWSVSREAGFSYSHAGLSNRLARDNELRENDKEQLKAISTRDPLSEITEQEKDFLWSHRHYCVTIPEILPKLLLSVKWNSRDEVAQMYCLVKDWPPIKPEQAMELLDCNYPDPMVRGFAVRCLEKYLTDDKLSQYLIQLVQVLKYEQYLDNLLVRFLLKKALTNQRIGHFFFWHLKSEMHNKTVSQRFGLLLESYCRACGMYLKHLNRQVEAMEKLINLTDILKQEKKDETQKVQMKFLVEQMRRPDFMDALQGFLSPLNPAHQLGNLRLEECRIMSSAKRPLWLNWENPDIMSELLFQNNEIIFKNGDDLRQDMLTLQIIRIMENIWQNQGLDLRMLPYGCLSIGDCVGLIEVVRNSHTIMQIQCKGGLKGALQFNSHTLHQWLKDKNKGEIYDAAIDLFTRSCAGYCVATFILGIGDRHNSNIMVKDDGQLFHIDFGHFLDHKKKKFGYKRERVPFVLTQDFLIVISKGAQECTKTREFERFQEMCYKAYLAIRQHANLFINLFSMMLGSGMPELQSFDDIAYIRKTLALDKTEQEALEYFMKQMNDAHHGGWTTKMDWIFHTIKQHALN
Sequence of PI3Kα (P27986 whole entry partner): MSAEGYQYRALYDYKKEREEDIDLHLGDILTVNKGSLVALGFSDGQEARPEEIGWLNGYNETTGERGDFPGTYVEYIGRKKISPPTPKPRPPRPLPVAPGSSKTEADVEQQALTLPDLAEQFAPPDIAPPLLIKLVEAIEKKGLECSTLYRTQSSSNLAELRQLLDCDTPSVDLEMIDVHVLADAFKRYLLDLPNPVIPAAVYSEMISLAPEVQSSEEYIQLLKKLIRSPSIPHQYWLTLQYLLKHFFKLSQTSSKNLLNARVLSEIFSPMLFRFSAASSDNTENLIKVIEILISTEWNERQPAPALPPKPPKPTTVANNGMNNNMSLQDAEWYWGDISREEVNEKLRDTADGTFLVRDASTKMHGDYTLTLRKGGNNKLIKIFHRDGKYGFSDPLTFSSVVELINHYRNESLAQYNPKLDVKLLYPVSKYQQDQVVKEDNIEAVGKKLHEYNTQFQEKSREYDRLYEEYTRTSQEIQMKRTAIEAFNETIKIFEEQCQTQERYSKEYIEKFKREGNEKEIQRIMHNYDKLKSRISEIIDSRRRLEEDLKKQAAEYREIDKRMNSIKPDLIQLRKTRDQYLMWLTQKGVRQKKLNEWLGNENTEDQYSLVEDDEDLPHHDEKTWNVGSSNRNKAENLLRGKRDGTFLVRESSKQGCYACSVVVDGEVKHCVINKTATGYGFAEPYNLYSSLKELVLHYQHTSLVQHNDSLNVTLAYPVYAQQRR

For `CS(=O)(=O)N1CCN(Cc2cc3nc(-c4cccc5[nH]ncc45)nc(N4CCOCC4)c3s2)CC1` [GDC0941, reference compound], the IC50 in assay [1] is 478 nM; in assay [2], 256 nM; in assay [3], 1200 nM; in [4] it was 3200 nM; in assay [5] it was 1660 nM; in [6], 519 nM. Also, the IC50 turned out to be 1670 nM in assay [7]; 517 nM in assay [8]; 2200 nM in assay [9]; 636 nM in [10]; 8100 nM in assay [11]; 316 nM in assay [12]. For the same molecule, the “Relative tumor proliferation rate T/C” value in assay [13] (d0) is recorded as 100.00%; in [13] (d3), 75.12%; in [13] (d7) it was 79.34%; in assay [13] (d10), 74.75%; in [13] (d14), 56.86%; in assay [13] (d17) it was 53.57%. Moreover, the “Relative tumor proliferation rate T/C” value in assay [13] (d21) amounted to 51.40%.
Turning to `CCNC(=O)Nc1cc(C(F)(F)F)c(-c2nc(N3CCOCC3)c3cc(CN4CCN(S(C)(=O)=O)CC4)cn3n2)cn1` [Compound I-30, 1-ethyl-3-(5-(6-((4-(methylsulfonyl)piperazin-1-yl)methyl)-4-morpholinopyrrolo[2,1-f][1,2,4]triazin-2-yl)-4-(trifluoromethyl)pyridin-2-yl)urea], the IC50 in assay [1] came to 256 nM; in [2], 32 nM; in assay [3], 890 nM; in [4] it was 3200 nM; in [5], 660 nM; in [6], 2510 nM. Besides, the IC50 in assay [7] was found to be 1550 nM; in assay [8] it was 493 nM; in assay [9] it was 2000 nM; in assay [10], 601 nM; in [11] it was 9700 nM; in assay [12], 46 nM. Besides, the IC50 in assay [14] is 8.19 nM; in [15], 820 nM.
